In PubChem BioAssay (NCI):
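Step 1: Grow cells in 96-well plates. Step 2: Expose to compound for 48 hours at 5 concentrations. Step 3: Interpolate endpoints linearly; if unreached, use highest concentration. At the TGI there is no net growth.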

Experiments:
Assay in all cases: growth of human tumour cells (NCI), 48 h
A549 NSCLC = tested on: A549 NSCLC
CAKI-1 renal = tested on: CAKI-1 renal
DU-145 prostate = tested on: DU-145 prostate
HCT-15 colon = tested on: HCT-15 colon
HL-60(TB) leukemia = tested on: HL-60(TB) leukemia
HT29 colon = tested on: HT29 colon
IGROV1 ovarian = tested on: IGROV1 ovarian
LOX IMVI melanoma = tested on: LOX IMVI melanoma
NCI-H226 lung = tested on: NCI-H226 lung
NCI-H460 lung = tested on: NCI-H460 lung
NCI/ADR-RES ovarian = tested on: NCI/ADR-RES ovarian
PC-3 prostate = tested on: PC-3 prostate
SF-295 CNS = tested on: SF-295 CNS
SK-MEL-2 melanoma = tested on: SK-MEL-2 melanoma
SNB-19 CNS = tested on: SNB-19 CNS
T-47D breast = tested on: T-47D breast
RXF 393 renal = tested on: RXF 393 renal

Row | SMILES | TGI (A549 NSCLC) | TGI (CAKI-1 renal) | TGI (DU-145 prostate) | TGI (HCT-15 colon) | TGI (HL-60(TB) leukemia) | TGI (HT29 colon) | TGI (IGROV1 ovarian) | TGI (LOX IMVI melanoma) | TGI (NCI-H226 lung) | TGI (NCI-H460 lung) | TGI (NCI/ADR-RES ovarian) | TGI (PC-3 prostate) | TGI (SF-295 CNS) | TGI (SK-MEL-2 melanoma) | TGI (SNB-19 CNS) | TGI (T-47D breast) | TGI (RXF 393 renal)
1 | CC(=O)c1cc(CC2Cc3cc4c(cc3C2=O)CCC4)cc2c1CCC2 (stereo not drawn) | > 100 µM | > 100 µM | > 100 µM | > 100 µM | 56.2 µM | > 100 µM | > 100 µM | > 100 µM | > 100 µM | > 100 µM | > 100 µM | > 100 µM | > 100 µM | > 100 µM | > 100 µM | > 100 µM | 
2 | O=C(NC1CCN(Cc2ccccc2)CC1)c1cccc(I)c1 | > 100 µM | 54.5 µM | > 100 µM | 35.6 µM | > 100 µM | 43.7 µM | > 100 µM | 37.8 µM | 78.1 µM | 63.7 µM | > 100 µM | > 100 µM | 33.8 µM | 38.5 µM | > 100 µM | 61 µM | > 100 µM
3 | COc1ccc(Cc2cc(OC)c(OC)c(OC)c2)cc1 | > 100 µM | > 51.7 µM | 6.38 µM | > 30.9 µM | 0.308 µM | 8.25 µM | > 100 µM | > 89.7 µM | 12 µM | 47 µM | > 100 µM | > 100 µM | > 29.4 µM | 41.4 µM | > 100 µM | 89.8 µM | 3.38 µM
4 | O=C1C[C@@H]2[C@@H](CCC23CCCC3)N1 | > 100 µM | > 100 µM |  | > 100 µM | > 100 µM | > 100 µM | > 100 µM | > 100 µM | > 100 µM | > 100 µM |  |  | > 100 µM | > 100 µM | > 100 µM |  | > 100 µM
5 | CN1C(=S)CSc2ccccc21 | > 100 µM | > 100 µM |  | > 100 µM | > 100 µM | > 100 µM | > 100 µM | > 100 µM | > 100 µM | > 100 µM |  |  |  | > 100 µM | > 100 µM |  | > 100 µM
6 | CCOC(=O)c1cc(-c2ccc([N+](=O)[O-])cc2)c([N+](=O)[O-])[nH]1 | > 10 µM |  | > 10 µM | > 10 µM |  | > 10 µM | > 10 µM |  | 5.77 µM | > 10 µM | > 10 µM |  | 7.47 µM | > 10 µM | > 10 µM | 9.95 µM | 9.41 µM
7 | O=C1N=CN=C2C=CC(Cl)=C(I)C12 (stereo not drawn) | > 100 µM | > 100 µM |  |  | > 100 µM | > 100 µM | > 100 µM | > 100 µM |  | > 100 µM |  |  | > 100 µM | > 100 µM | > 100 µM |  | 70.8 µM
8 | CC(C)COC(=O)c1ccc(N=Cc2ccc(C=Nc3ccc(C(=O)OCC(C)C)cc3)cc2)cc1 | > 100 µM | > 100 µM |  | > 100 µM | > 100 µM | > 100 µM | > 100 µM | > 100 µM | > 100 µM | > 100 µM |  |  | > 100 µM | > 100 µM | > 100 µM |  | 
9 | O=c1sc(Nc2ccc3ccccc3c2Cl)nc2ccccc12 | > 100 µM | > 100 µM | > 100 µM | > 100 µM | > 100 µM | > 100 µM | > 100 µM | > 100 µM |  | > 100 µM | > 100 µM | > 100 µM | > 100 µM | > 100 µM | > 100 µM | > 100 µM | > 100 µM
10 | CSCCC(NC(=O)Cc1ccc(C(=O)c2ccccc2)cc1)C(=O)N1CCN(CCCCN2c3ccccc3Sc3cc(N=[N+]=[N-])ccc32)CC1 (stereo not drawn) |  | > 100 µM | > 100 µM | > 100 µM | > 100 µM | > 100 µM | > 100 µM | > 100 µM | > 100 µM | > 100 µM |  | > 100 µM | > 100 µM | > 100 µM |  |  | > 100 µM
11 | CC1OC(OC2C(OC(=O)[C@]34CCC(C)(C)CC3C3=CCC5[C@@]6(C)C[C@H](O)[C@H](OC7OC(COC8OC(CO)C(O)C(O)C8O)C(O)C(O)C7O)[C@@](C)(C(=O)O)C6CC[C@@]5(C)C3(C)CC4)OCC(O)C2O)C(O)C(O)C1OC1OCC(O)C(O)C1O (stereo partly drawn) | > 100 µM | > 100 µM |  | > 100 µM | > 100 µM | > 100 µM | > 100 µM | > 100 µM | > 100 µM | > 100 µM |  |  | > 100 µM | > 100 µM | > 100 µM |  | > 100 µM
12 | O=C(CSc1nnc(Cc2ccccc2)o1)Nc1ccc(Cl)cc1[N+](=O)[O-] | 35.6 µM |  |  | 32.2 µM | 61.5 µM | 49.2 µM |  | 26.3 µM | 47.6 µM |  |  |  | 34.2 µM | 29.8 µM | 31 µM |  | 33.4 µM
